In patent publication US7371739B2, “Aryl fructose-1,6-bisphosphatase inhibitors” (Metabasis Therapeutics, Inc., priority 2000, dated 2008):

These compounds were tested against T1, rat liver FBPase (Rattus norvegicus, UniProt P19112) (assay: Inhibition of Rat Liver FBPase). Conditions: assay identical to human liver FBPase; read-out: IC50 for AMP, rat liver FBPase.
T1 construct: made in house; host or cells: E. coli BL21
T1 sequence (P19112 2-363 limits assumed): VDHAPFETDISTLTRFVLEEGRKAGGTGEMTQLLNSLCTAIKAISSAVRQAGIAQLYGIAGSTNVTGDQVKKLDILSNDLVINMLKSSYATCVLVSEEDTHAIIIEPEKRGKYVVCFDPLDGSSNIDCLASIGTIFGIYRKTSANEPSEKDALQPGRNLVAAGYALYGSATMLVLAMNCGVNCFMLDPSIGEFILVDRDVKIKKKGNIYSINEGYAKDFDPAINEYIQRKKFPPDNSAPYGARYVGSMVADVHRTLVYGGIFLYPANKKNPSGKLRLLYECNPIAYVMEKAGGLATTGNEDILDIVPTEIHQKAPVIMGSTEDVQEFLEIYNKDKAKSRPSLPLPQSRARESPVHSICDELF
Type: biochemical
Procedure: Recombinant FBPase is purified as described (El-Maghrabi, M. R., and Pilkis, S. J. (1991) Biochem. Biophys. Res. Commun. 176, 137-144) The enzyme assay is identical to that described above for human liver FBPase. The IC50 for AMP is 20 μM.
With Nc1ncnc2c1ncn2[C@@H]1O[C@H](COP(=O)(O)O)[C@@H](O)[C@H]1O [AMP, reference compound] the IC50 was 20 µM.

Each compound was assayed on human liver microsomes (P450 isozymes CYP3A4, CYP1A2, CYP2C9) (assay: Identification of the P450 Isozyme Involved in the Activation). Conditions: 0-100 μM P450 isozyme inhibitor.
Type: in vitro ADME
Procedure: Prodrugs are evaluated for human microsome-catalyzed conversion to parent compound in the absence and presence of specific inhibitors of three major P450 isozymes: ketoconazole (CYP3A4), furafylline (CYP1A2), and sulfaphenazole (CYP2C9).
Methods: Reaction (0.5 ml@37° C.) consist of 0.2 M KH2PO4, 13 mM glucose-6-phosphate, 2.2 mM NADP^+, 1 unit of glucose-6-phosphate dehydrogenase, 0-2.5 mg/ml human microsomal protein (In Vitro Technologies, In.), […], and 0-100 μM P450 isozyme inhibitor. Reactions are stopped by addition of methanol to a concentration of 60%, filtered ([…]), and lyophilized. Samples are resuspended in HPLC buffer (10 mM phosphate pH 5.5, 2.5 mM octyl-triethylammonium), loaded onto a YMC C8 HPLC column (250×4.6 mm), and eluted with a methanol gradient to 80%. Formuation of parent drug is confirmed by co-elution with an authentic parent drug standard.
Results: Prodrug is converted readily to parent drug in human liver microsomes.
In the case of CC(=O)N1CCN(c2ccc(OCC3COC(Cn4ccnc4)(c4ccc(Cl)cc4Cl)O3)cc2)CC1 (stereo not drawn) [Ketoconazole], the “inhibition of formation of parent drug from prodrug by P450 isozyme inhibitor” value (shortened to “inhibition of formation of parent drug”) is reported as “inhibit the formation of parent drugs in a dose-dependent fashion”.
For Cc1nc2c([nH]1)c(=O)n(C)c(=O)n2Cc1ccco1 [fusafylline], the “inhibition of formation of parent drug” value was “no significant inhibition”.
With Nc1ccc(S(=O)(=O)Nc2ccnn2-c2ccccc2)cc1 [sulfaphenazole] the “inhibition of formation of parent drug” value was “no significant inhibition”.

What follows are compounds tested against T2, human liver FBPase (Homo sapiens, UniProt P09467) (assay: Inhibition of Human Liver FBPase). Conditions: not given.
T2 sequence (P09467 2-338 limits assumed): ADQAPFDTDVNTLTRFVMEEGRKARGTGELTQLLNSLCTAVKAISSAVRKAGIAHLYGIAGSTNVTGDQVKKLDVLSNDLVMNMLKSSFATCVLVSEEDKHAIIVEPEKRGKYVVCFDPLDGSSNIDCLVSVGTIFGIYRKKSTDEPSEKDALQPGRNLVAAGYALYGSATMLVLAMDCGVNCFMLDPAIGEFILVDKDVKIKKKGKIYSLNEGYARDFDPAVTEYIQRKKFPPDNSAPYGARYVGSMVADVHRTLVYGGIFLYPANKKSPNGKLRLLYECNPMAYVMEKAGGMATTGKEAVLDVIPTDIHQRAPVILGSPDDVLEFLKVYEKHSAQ
O=[N+]([O-])c1cc(-c2ccc(P(=O)(O)O)o2)cc([N+](=O)[O-])c1 [Compound 1.01, 5-(3,5-Dinitrophenyl)-2-furanphosphonic Acid] was tested, and the IC50 was 0.31 µM.
Compound Nc1c(-c2ccc(P(=O)(O)O)o2)cc([N+](=O)[O-])cc1[N+](=O)[O-] [Compound 1.02] has an IC50 of 1.8 µM.
Compound COc1ccc(Cl)cc1-c1ccc(P(=O)(O)O)o1 [Compound 1.03] has an IC50 of 0.5 µM.
O=P(O)(O)c1ccc(-c2ccc(F)cc2)o1 [Compound 2.01, 5-(4-Fluorophenyl)-2-furanphosphonic Acid] gave an IC50 of 2.2 µM.
O=P(O)(O)c1ccc(-c2ccc(Cl)cc2Cl)o1 [Compound 2.02] was tested, and the IC50 was 3 µM.
Compound Nc1cc(-c2ccc(P(=O)(O)O)o2)ccc1Br [Compound 3.01, 5-(4-Bromo-3-aminophenyl)-2-furanphosphonic Acid] has an IC50 of 5.5 µM.
In the case of COc1ccc(CNc2ccccc2)cc1-c1ccc(P(=O)(O)O)o1 [Compound 4.46], the IC50 is reported as 3 µM.
COc1ccc(CNc2ccc(O)cc2)cc1-c1ccc(P(=O)(O)O)o1 [Compound 4.48] showed an IC50 of 0.14 µM.
COc1ccc(CNc2ccc(N)cc2)cc1-c1ccc(P(=O)(O)O)o1 [Compound 4.49] gave an IC50 of 0.32 µM.
COc1ccc(CNc2ccc(NC(C)=O)cc2)cc1-c1ccc(P(=O)(O)O)o1 [Compound 4.50] gave an IC50 of 6.5 µM.
COc1ccc(CN(C(C)=O)c2ccc(N)cc2)cc1-c1ccc(P(=O)(O)O)o1 [Compound 4.51] gave an IC50 of 12 µM.
With O=C(NCP(=O)(O)O)c1ccc(Br)o1 [Compound 8.01, N-(Phosphonomethyl)-5-bromofuran-2-carboxamide] the IC50 was 4 µM.
With O=C(NCP(=O)(O)O)c1cc([N+](=O)[O-])cc([N+](=O)[O-])c1 [Compound 8.14] the IC50 was 4 µM.
Compound COc1cc(Cl)ccc1C(=O)OCP(=O)(O)O [Compound 11.01, Phosphonomethyl 4-Chloro-2-methoxybenzoate] has an IC50 of 2.8 µM.
O=C(OCP(=O)(O)O)c1ccc(Br)o1 [Compound 11.02] was tested, and the IC50 was 6.4 µM.
For COc1c(Br)cccc1C(=O)OCP(=O)(O)O [Compound 12.01, Phosphonomethyl 3-Bromo-2-methoxybenzoate], the IC50 was 4.2 µM.
Compound COc1cc(COCP(=O)(O)O)ccc1Br [Compound 13.01, 4-Bromo-3-methoxyphenylmethoxymethylphosphonic acid] has an IC50 of 11 µM.
In the case of O=[N+]([O-])c1cc(COCP(=O)(O)O)cc([N+](=O)[O-])c1 [Compound 13.02], the IC50 is reported as 9 µM.
O=P(O)(O)C#Cc1ccccc1 [Compound 16.01, 1-Phosphono-2-phenylacetylene] gave an IC50 of 89 µM.

Same assay, conditions: read-out: IC50 for AMP, human liver FBPase; text value for reference AMP
Nc1ncnc2c1ncn2[C@@H]1O[C@H](COP(=O)(O)O)[C@@H](O)[C@H]1O [AMP, reference compound] showed an IC50 of 1 µM.
